Patent US12534469B2 (CHILDREN'S HOSPITAL MEDICAL CENTER, priority 2020, dated 2026)
Positions count from the first letter of the chain named.

What was measured:
FLT3 D835Y = molecular target: T1, FLT3 D835Y (Homo sapiens, UniProt P36888, D835Y); assay: DiscoverX KINOMEscan competition binding assay, FLT3 D835Y
T1 construct: purchased DiscoverX (KINOMEscan); host or cells: E. coli (T7 phage) or HEK-293
T1 sequence (P36888 27-993 D835Y): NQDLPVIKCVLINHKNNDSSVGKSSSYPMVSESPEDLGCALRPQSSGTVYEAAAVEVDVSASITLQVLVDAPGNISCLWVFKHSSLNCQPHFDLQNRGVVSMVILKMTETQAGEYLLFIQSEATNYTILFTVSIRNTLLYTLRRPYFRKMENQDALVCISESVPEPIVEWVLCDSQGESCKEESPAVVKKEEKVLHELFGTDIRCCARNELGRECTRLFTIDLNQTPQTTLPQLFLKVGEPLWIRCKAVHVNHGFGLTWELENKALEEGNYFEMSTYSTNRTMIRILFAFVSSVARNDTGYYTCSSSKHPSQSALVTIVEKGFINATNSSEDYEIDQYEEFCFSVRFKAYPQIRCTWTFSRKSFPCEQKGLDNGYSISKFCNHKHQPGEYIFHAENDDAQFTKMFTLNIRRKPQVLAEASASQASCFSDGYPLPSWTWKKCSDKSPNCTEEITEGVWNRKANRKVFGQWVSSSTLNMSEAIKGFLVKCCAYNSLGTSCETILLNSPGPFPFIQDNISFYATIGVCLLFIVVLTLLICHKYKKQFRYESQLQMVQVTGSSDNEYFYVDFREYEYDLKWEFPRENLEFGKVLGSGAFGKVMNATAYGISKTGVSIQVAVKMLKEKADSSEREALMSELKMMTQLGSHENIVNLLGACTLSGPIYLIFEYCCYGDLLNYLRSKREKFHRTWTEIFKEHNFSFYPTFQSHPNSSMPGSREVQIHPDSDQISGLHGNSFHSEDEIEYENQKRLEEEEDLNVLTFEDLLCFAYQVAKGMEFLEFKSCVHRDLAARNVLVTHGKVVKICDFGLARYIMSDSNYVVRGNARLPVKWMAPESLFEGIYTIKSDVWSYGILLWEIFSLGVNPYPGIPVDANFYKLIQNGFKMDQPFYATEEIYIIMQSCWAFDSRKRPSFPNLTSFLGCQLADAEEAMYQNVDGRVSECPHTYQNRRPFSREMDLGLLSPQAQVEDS
Excerpt: (§1) Kinase binding data were obtained for various exemplary compounds prepared according to Examples 1-25 using the DiscoverX KINOMEscan® active site-directed competition binding site-directed assay protocol described below. […] As a result, the data report thermodynamic interaction affinities (Kd values), rather than IC50 values that are dependent on ATP concentrations. The assay uses a DNA-tagged version of the protein kinase, and an immobilized ligand bound to a solid support. Compounds that directly or indirectly prevent kinase binding to the immobilized ligand reduce the amount of kinase captured on the solid support, which is detected using an ultra-sensitive qPCR method. Affinity constants reported from the assay have been reported to be independent of the immobilized ligand used that is coupled to the solid support (See supplemental information in Fabian, M. A. et. al., (2005) Nat. Biotechnol. 23, 329-336; Wodicka, L. M. et. al., (2010) Chem. Biol. 17, 1241-1249.)
(§2) Kinase-tagged T7 phage strains were prepared in an E. coli host derived from the BL21 strain. E. coli were grown to log-phase and infected with T7 phage and incubated with shaking at 32° C. until lysis. The lysates were centrifuged and filtered to remove cell debris. The remaining kinases were produced in HEK-293 cells and subsequently tagged with DNA for qPCR detection. […] The liganded beads were blocked with excess biotin and washed with blocking buffer (SeaBlock (Pierce), 1% BSA, 0.05% Tween 20, 1 mM DTT) to remove unbound ligand and to reduce non-specific binding. […] Test compounds were prepared as 111× stocks in 100% DMSO. Kds were determined using an 11-point 3-fold compound dilution series with three DMSO control points. […] The compounds were then diluted directly into the assays such that the final concentration of DMSO was 0.9%. All reactions were performed in polypropylene 384-well plates. Each was a final volume of 0.02 mL. […] The kinase concentration in the eluates was measured by qPCR.
(§3) Binding constants (Kds) were calculated with a standard dose-response curve using the Hill equation. […]

FLT3 N841I = molecular target: T2, FLT3 N841I (Homo sapiens, UniProt P36888, N841I); assay: DiscoverX KINOMEscan competition binding assay, FLT3 N841I
T2 construct: purchased DiscoverX (KINOMEscan); host or cells: E. coli (T7 phage) or HEK-293
T2 sequence (P36888 27-993 N841I): T1 sequence (P36888 27-993 D835Y) with Y809D, N815I
Excerpt: as §1, §2, §3

Kd (FLT3 D835Y)	Kd (FLT3 N841I)	SMILES
0.16 nM	0.36 nM	COc1cc2ncc(-c3cccc(N[C@H]4CNCC[C@@H]4F)n3)n2nc1C1CC1 [Compound 102, 6-(6-cyclopropyl-7-methoxyimidazo[1,2-b]pyridazin-3-yl)-N-((3S,4S)-4-fluoropiperidin-3-yl)pyridin-2-amine]
0.46 nM	0.91 nM	COc1cc2ncc(-c3cccc(N[C@H]4CNC[C@@H]4F)n3)n2nc1C1CC1 [Compound 96, 6-(6-cyclopropyl-7-methoxyimidazo[1,2-b]pyridazin-3-yl)-N-((3S,4S)-4-fluoropyrrolidin-3-yl)pyridin-2-amine]
0.063 nM	0.55 nM	COc1cc2ncc(-c3cccc(N[C@@H]4CCNC4)n3)n2nc1C1CC1 [Compound 97, (R)-6-(6-cyclopropyl-7-methoxyimidazo[1,2-b]pyridazin-3-yl)-N-(pyrrolidin-3-yl)pyridin-2-amine]
